In brackets after ≈: the same amount, converted by molar mass.
Legend:
[1] = system: Streptomyces fradiae E2724.1; experiment: Antibiotic sensitivity, sensitivity discs on seeded agar plates; type: cell-based; conditions: discs: chloramphenicol, cephaloridine, tetracycline, vancomycin 30 μg, erythromycin 15 μg, lincomycin 2 μg, polymyxin B 300 units, streptomycin 10 μg; also: key: -: resistance (no zones of inhibition); +: sensitivity (zones of inhibition); trace of sensitivity
Description: (§1) ^a Determined by using sensitivity discs padded onto seededagar

[2] = system: Streptomyces fradiae ATCC 31664; experiment: as above; type: cell-based; conditions: discs: chloramphenicol, cephaloridine, tetracycline, vancomycin 30 μg, erythromycin 15 μg, lincomycin 2 μg, polymyxin B 300 units, streptomycin 10 μg; also: key: -: resistance (no zones of inhibition); +: sensitivity (zones of inhibition); trace of sensitivity
Description: as §1

[3] = system: Staphylococcus aureus 3055; experiment: Experimental infection in mice, ED50; type: in vivo; conditions: sc, subcutaneous, two doses, bacterial challenge (X LD50) = 139, read-out: Subcutaneous ED50 (effective dose to protect 50% of the test animals)
Procedure: (§2) The DOMM compounds have shown in vivo antimicrobial activity against experimental bacterial infections. When two doses of test compound were administered to mice in experimental infections, the activity observed was measured as an ED50 value [effective dose in mg/kg to protect 50% of the test animals: see Warren Wick, et al., J. Bacteriol. 81, 233-235 (1961)].

[4] = system: Streptococcus pneumoniae Park I; experiment: Experimental infection in mice, ED50; type: in vivo; conditions: sc, subcutaneous, two doses, bacterial challenge (X LD50) = 41.2, read-out: Subcutaneous ED50 (effective dose to protect 50% of the test animals)
Procedure: as §2

[5] = system: Streptococcus pyogenes C203; experiment: Experimental infection in mice, ED50; type: in vivo; conditions: sc, subcutaneous, two doses, bacterial challenge (X LD50) = 133, read-out: Subcutaneous ED50 (effective dose to protect 50% of the test animals)
Procedure: as §2

Solubility = type: physicochemical
[6] = Electrometric titration (pKa); type: physicochemical; conditions: 66% aqueous dimethylformamide
Description: Electrometric titration of DOMM in 66% aqueous dimethylformamide indicates the presence of a titratable group with a pKa value of about 7.14.

[7] = system: pathogenic bacteria, especially gram-positive bacteria and Mycoplasma species; experiment: Inhibition of growth of pathogenic organisms (general statement); type: cell-based
Description: (§3) Table 8 summarizes the minimal inhibitory concentrations (MIC), as measured by standard agar-dilution assays, at which DOMM (free base) inhibits certain bacteria.

Pasteurella multocida = experiment: Standard agar-dilution MIC assay; type: cell-based; conditions: DOMM free base
Description: as §3

Mycoplasma gallisepticum = experiment: Standard agar-dilution MIC assay; type: cell-based; conditions: Mycoplasmoides gallisepticum, DOMM free base
Description: as §3

Pasteurella hemolytica = experiment: Standard agar-dilution MIC assay; type: cell-based; conditions: DOMM free base
Description: as §3

[8] = system: Streptococcus pneumoniae Park I; experiment: Standard agar-dilution MIC assay; type: cell-based; conditions: DOMM free base
Description: as §3

[9] = system: Streptococcus pyogenes C203; experiment: Standard agar-dilution MIC assay; type: cell-based; conditions: DOMM free base
Description: as §3

[10] = system: Streptococcus sp. (Group D) 282; experiment: Standard agar-dilution MIC assay; type: cell-based; conditions: DOMM free base
Description: as §3

Mycoplasma hyopneumoniae = experiment: Standard agar-dilution MIC assay; type: cell-based; conditions: Mesomycoplasma hyopneumoniae, DOMM free base
Description: as §3

Mycoplasma hyorhinis = experiment: Standard agar-dilution MIC assay; type: cell-based; conditions: DOMM free base
Description: as §3

## O=C(Cc1cccs1)N[C@@H]1C(=O)N2C(C(=O)[O-])=C(C[n+]3ccccc3)CS[C@H]12 [Cephaloridine]
[1]
  Antibiotic sensitivity: +
[2]
  Antibiotic sensitivity: +

## O=C(N[C@H](CO)[C@H](O)c1ccc([N+](=O)[O-])cc1)C(Cl)Cl [Chloramphenicol]
[1]
  Antibiotic sensitivity: +
[2]
  Antibiotic sensitivity: +

## CCC1OC(=O)CC(O)C(C)C(OC2OC(C)C(OC3CC(C)(O)C(O)C(C)O3)C(N(C)C)C2O)C(CC=O)CC(C)C(=O)C=CC(C)=CC1COC1OC(C)C(O)C(O)C1O (centres unmarked) [DOMM, 2'"-O-demethylmacrocin]
[3]
  ED50: 3.8 mg/kg
[4]
  ED50: 37.5 mg/kg
[5]
  ED50: 1.1 mg/kg
Solubility; acetone, methanol, ethanol, chloroform, dimethylformamide and dimethyl sulfoxide
  solubility in most polar organic solvents: soluble
Solubility; water
  solubility in water: soluble
[6]
  pKa value: about 7.14
[7]
  growth inhibition / antibacterial activity (in words): especially active against grampositive microorganisms and Mycoplasma species
Pasteurella multocida
  MIC: 12.5 µg/mL (≈ 14.1 µM)
Mycoplasma gallisepticum
  MIC: 0.78 µg/mL (≈ 0.878 µM)
Pasteurella hemolytica
  MIC: 50 µg/mL (≈ 56.3 µM)
[8]
  MIC: 0.25 µg/mL (≈ 0.282 µM)
[9]
  MIC: 0.25 µg/mL (≈ 0.282 µM)
[10]
  MIC: 4 µg/mL (≈ 4.5 µM)
Mycoplasma hyopneumoniae
  MIC: 0.78 µg/mL (≈ 0.878 µM)
Mycoplasma hyorhinis
  MIC: 3.12 µg/mL (≈ 3.51 µM)

## CCC[C@@H]1C[C@@H](C(=O)N[C@@H]([C@H]2O[C@H](SC)[C@H](O)[C@@H](O)[C@H]2O)[C@@H](C)O)N(C)C1 [Lincomycin]
[1]
  Antibiotic sensitivity: -
[2]
  Antibiotic sensitivity: -

## [H]/N=C(/N)N[C@H]1[C@H](O)[C@@H](O)[C@H](O[C@@H]2O[C@@H](C)[C@](O)(C=O)[C@H]2O[C@@H]2O[C@@H](CO)[C@H](O)[C@@H](O)[C@@H]2NC)[C@@H](N/C(N)=N\[H])[C@@H]1O [Streptomycin]
[1]
  Antibiotic sensitivity: +
[2]
  Antibiotic sensitivity: +

## CN(C)C1C(=O)C(C(N)=O)=C(O)C2(O)C(=O)C3=C(O)c4c(O)cccc4C(C)(O)C3CC12 (centres unmarked) [Tetracycline]
[1]
  Antibiotic sensitivity: +
[2]
  Antibiotic sensitivity: +

## CN[C@H](CC(C)C)C(=O)N[C@H]1C(=O)N[C@@H](CC(N)=O)C(=O)N[C@H]2C(=O)N[C@H]3C(=O)N[C@H](C(=O)N[C@H](C(=O)O)c4cc(O)cc(O)c4-c4cc3ccc4O)[C@H](O)c3ccc(c(Cl)c3)Oc3cc2cc(c3O[C@@H]2O[C@H](CO)[C@@H](O)[C@H](O)[C@H]2O[C@H]2C[C@](C)(N)[C@H](O)[C@H](C)O2)Oc2ccc(cc2Cl)[C@H]1O [Vancomycin]
[1]
  Antibiotic sensitivity: +
[2]
  Antibiotic sensitivity: +

## CCC1OC(=O)CC(O)C(C)C(OC2OC(C)C(OC3CC(C)(O)C(O)C(C)O3)C(N(C)C)C2O)C(CCO)CC(C)C(=O)C=CC(C)=CC1COC1OC(C)C(O)C(O)C1O (centres unmarked) [dihydro-DOMM, 20-dihydro-2'"-O-demethylmacrocin]
[7]
  growth inhibition / antibacterial activity (in words): especially active against grampositive microorganisms and Mycoplasma species

## Polymyxin B
[2]
  Antibiotic sensitivity: +

— patent US4486584A, “Demethylmacrocin compounds and derivatives thereof” (Eli Lilly and Company, priority 1982, dated 1984)
